Consider one compound from patent US10251932B2, “Preparations containing amorphous emodepside” (Bayer Intellectual Property GmbH, priority 2011, dated 2019).

As a reminder, the solubility is the concentration that dissolves in the medium under given conditions. Read a high solubility as a readily soluble substance.

This data set is described as follows: Solubility of emodepside in water. It is filed as physicochemical. The following applies: range of pH 4-10.

Converted amounts (≈) assume the structure as drawn.

As for `CC(C)CC1C(=O)OC(Cc2ccc(N3CCOCC3)cc2)C(=O)N(C)C(CC(C)C)C(=O)OC(C)C(=O)N(C)C(CC(C)C)C(=O)OC(Cc2ccc(N3CCOCC3)cc2)C(=O)N(C)C(CC(C)C)C(=O)OC(C)C(=O)N1C` [Emodepside, cyclo[(R)-lactoyl-N-methyl-1-leucyl-(R)-3-(p-morpholinophenyl)lactoyl-N-methyl-1-leucyl-(R)-lactoyl-N-methyl-1-leucyl-(R)-3-(p-morpholinophenyl)lactoyl-N-methyl-1-leucyl], the solubility was 5 to 7 µg/mL (≈ 4.47 to 6.25 µM).
